Patent US20030082625A1, “Method for the pretreatment of a surface for the reduction of non-specific binding by chemical entities” (priority 2001, published 2003)

Legend:
[1] = Non-specific binding (NSB) of drugs to ultrafiltration membrane filter, regenerated cellulose (Millipore Ultrafree-MC UFC 3LGC00, 10 k NMWL); assay type: physicochemical; settings: for NSB (%) Control / NSB (%) 0.5% BAK / NSB (%) 1% BAK / NSB (%) 2% BAK / NSB (%) 5% BAK / NSB (%) Tween 80 / NSB (%) BAK / NSB (%) 0.5% Tween / NSB (%) 1% Tween / NSB (%) 2% Tween / NSB (%) 5% Tween / NSB (%) SLS / NSB (%) Serum: regenerated cellulose; for NSB (%) 0.5% BAK: pretreatment 0.5% benzalkonium chloride; for NSB (%) 0.5% BAK / NSB (%) 1% BAK / NSB (%) 2% BAK / NSB (%) 5% BAK: drug 10 uM; for NSB (%) 1% BAK: pretreatment 1% benzalkonium chloride; for NSB (%) 2% BAK: pretreatment 2% benzalkonium chloride; for NSB (%) 5% BAK: pretreatment 5% benzalkonium chloride; for NSB (%) Tween 80: pretreatment with 0.5% Tween 80; for NSB (%) BAK: pretreatment with 0.5% benzalkonium chloride; for NSB (%) RC: regenerated cellulose membrane, drug concentration 10 uM; for NSB (%) 0.5% Tween: pretreatment 0.5% Tween 80; for NSB (%) 0.5% Tween / NSB (%) 1% Tween / NSB (%) 2% Tween / NSB (%) 5% Tween: drug 5 uM; for NSB (%) 1% Tween: pretreatment 1% Tween 80; for NSB (%) 2% Tween: pretreatment 2% Tween 80; for NSB (%) 5% Tween: pretreatment 5% Tween 80; for NSB (%) SLS: pretreatment with 0.5% sodium lauryl sulfate; for NSB (%) Serum: pretreatment with human serum
Experimental: (§1) Various experiments were performed using the following reagents, surfactants and reservoirs (also comprising ultrafiltration units): human serum, pH 7.4 phosphate buffered saline (PBS), drug solution (i.e. compound) in serum at a concentration of 1-50 μM, and drug solution in PBS at a concentration of 1-50 μM were used as reagents. Surfactant solutions were 0.01-20% Tween 80 (polyoxyethylene 20 sorbitan monooleate) in PBS as neutral solution, 0.01-20% Benzalkonium chloride (BAK) in PBS as cationic solution, 0.01-20% Sodium lauryl sulfate (SLS) in PBS as anionic solution. An ultrafiltration reservoir (Millipore, Ultrafree-MC) comprising regenerated cellulose (UFC 3LGC00, 10 k NMWL) or polyethersulfone (UFC 3BSC00, 10 k NMWL) was used.
(§2) The upper ultrafiltration cup was connected to the reservoir tube and 25 μL surfactant solution was added to each well. After bedewing for 5 min, the reservoir tube containing the ultrafiltration cup was centrifuged for 10 min at 3000 g and room temperature.
(§3) 200 μL of PBS was added to each ultrafiltration cup and equilibrated for 30 min. Remaining PBS was removed from the ultrafiltration cup by gentle tapping the cup. The upper ultrafiltration cup was reconnected to a new reservoir tube, and 400 μL drug solution (1-50 μM) in serum or PBS was applied and equilibrated for 1 hr at room temperature.
(§4) The ultrafiltration tube was centrifuged for 18 min at 3000 g at room temperature. 50 μL sample was taken from the receiver (filtrate) and donor (drug solution in serum or PBS) for bioanalysis. Non-specific binding was calculated as follows:
(§5) NSB=(Cf1-Cf2)/Cf1, where NSB: non specific binding to membrane filter at pH 7.4 isotonic PBS, Cf1: free drug before filtration, and Cf2: free drug in the filtrate after filtration

[2] = Non-specific binding (NSB) of drugs to ultrafiltration membrane filter, polyethersulfone (Millipore Ultrafree-MC UFC 3BSC00, 10 k NMWL); assay type: physicochemical; settings: no pretreatment, drug concentration 10 uM
Experimental: as §1, §2, §3, §4, §5

[3] = no surfactant pretreatment, drug concentration 5 uM, pH 7.4 PBS
[4] = no pretreatment, drug concentration 50 uM

SMILES: CC[C@]1(O)C[C@@H]2CN(CCc3c([nH]c4ccccc34)[C@@](C(=O)OC)(c3cc4c(cc3OC)N(C)[C@H]3[C@@](O)(C(=O)OC)[C@H](OC(C)=O)[C@]5(CC)C=CCN6CC[C@]43[C@@H]65)C2)C1 [Vinblastine]
- NSB (%) Control [1, 3]: 95%
- NSB (%) 0.5% BAK [1]: 82%
- NSB (%) 1% BAK [1]: 79%
- NSB (%) 2% BAK [1]: 68%
- NSB (%) 5% BAK [1]: 59%
- NSB (%) Tween 80 ([1]; drug concentration 5 uM): 95.2%
- NSB (%) BAK ([1]; drug concentration 5 uM): 64%
- NSB (%) RC ([1]; no pretreatment): 95%
- NSB (%) PES [2]: 95%

SMILES: Cc1cc(=O)n(-c2ccccc2)n1C [Antipyrine]
- NSB (%) Control [1, 3]: 10%
- NSB (%) Tween 80 ([1]; drug concentration 5 uM): 0%
- NSB (%) BAK ([1]; drug concentration 5 uM): 0%

SMILES: C[C@]12CCC(=O)C=C1CC[C@@H]1[C@@H]2[C@@H](O)C[C@@]2(C)[C@H]1CC[C@]2(O)C(=O)CO [Hydrocortisone]
- NSB (%) Control [1, 4]: 87%
- NSB (%) Control [1, 3]: 87%
- NSB (%) 0.5% Tween [1]: 52%
- NSB (%) 0.5% BAK [1]: 30%
- NSB (%) 1% Tween [1]: 35%
- NSB (%) 1% BAK [1]: 22%
- NSB (%) 2% Tween [1]: 33%
- NSB (%) 2% BAK [1]: 16%
- NSB (%) 5% Tween [1]: 30%
- NSB (%) 5% BAK [1]: 14%
- NSB (%) Tween 80 ([1]; drug concentration 5 uM): 21.1%
- NSB (%) BAK ([1]; drug concentration 5 uM): 25%
- NSB (%) SLS ([1]; drug concentration 50 uM): 62%
- NSB (%) Serum ([1]; drug concentration 50 uM): 84%
- NSB (%) RC ([1]; no pretreatment): 87%
- NSB (%) PES [2]: 71%

SMILES: COc1cc([C@@H]2c3cc4c(cc3[C@@H](O[C@@H]3O[C@@H]5CO[C@@H](C)O[C@H]5[C@H](O)[C@H]3O)[C@H]3COC(=O)[C@H]23)OCO4)cc(OC)c1O [Etoposide]
- NSB (%) Control [1, 4]: 91%
- NSB (%) Control [1, 3]: 91%
- NSB (%) Tween 80 ([1]; drug concentration 5 uM): 23.1%
- NSB (%) BAK ([1]; drug concentration 5 uM): 28.3%
- NSB (%) Serum ([1]; drug concentration 50 uM): 93%
- NSB (%) RC ([1]; no pretreatment): 91%
- NSB (%) PES [2]: 93%

SMILES: Cn1c(=O)c2[nH]cnc2n(C)c1=O [Theophylline]
- NSB (%) Control [1, 3]: 8%
- NSB (%) Tween 80 ([1]; drug concentration 5 uM): 0%
- NSB (%) BAK ([1]; drug concentration 5 uM): 0%

SMILES: COc1ccc(CCN(C)CCCC(C#N)(c2ccc(OC)c(OC)c2)C(C)C)cc1OC (centres unmarked) [Verapamil]
- NSB (%) 0.5% BAK [1]: 43%
- NSB (%) 1% BAK [1]: 34%
- NSB (%) 2% BAK [1]: 25%
- NSB (%) 5% BAK [1]: 12%

SMILES: CC(C(=O)O)c1cccc(C(=O)c2ccccc2)c1 (centres unmarked) [Ketoprofen]
- NSB (%) Control [1, 3]: 34%
- NSB (%) Tween 80 ([1]; drug concentration 5 uM): 4.1%

SMILES: Cn1c(=O)c2c(ncn2C)n(C)c1=O [Caffeine]
- NSB (%) Control [1, 3]: 17%
- NSB (%) Tween 80 ([1]; drug concentration 5 uM): 0%
- NSB (%) BAK ([1]; drug concentration 5 uM): 0%

SMILES: CC(C)NCC(O)COc1cccc2ccccc12 (centres unmarked) [Propranolol]
- NSB (%) Control [1, 4]: 91%
- NSB (%) Control [1, 3]: 91%
- NSB (%) 0.5% Tween [1]: 66%
- NSB (%) 0.5% BAK [1]: 14%
- NSB (%) 1% Tween [1]: 65%
- NSB (%) 1% BAK [1]: 15%
- NSB (%) 2% Tween [1]: 60%
- NSB (%) 2% BAK [1]: 5%
- NSB (%) 5% Tween [1]: 52%
- NSB (%) 5% BAK [1]: 10%
- NSB (%) Tween 80 ([1]; drug concentration 5 uM): 46.5%
- NSB (%) BAK ([1]; drug concentration 5 uM): 13%
- NSB (%) SLS ([1]; drug concentration 50 uM): 84%
- NSB (%) Serum ([1]; drug concentration 50 uM): 90%
- NSB (%) RC ([1]; no pretreatment): 91%
- NSB (%) PES [2]: 69%

SMILES: CC(C)Cc1ccc(C(C)C(=O)O)cc1 (centres unmarked) [Ibuprofen]
- NSB (%) Control [1, 3]: 29%
- NSB (%) Tween 80 ([1]; drug concentration 5 uM): 2.3%
